In PMC12650660, “Novel Synthetic Strategies Towards Analogues of Cadaside and Malacidin Antibiotic Peptides” (Biomolecules, 2025):
Converted amounts (≈) assume the structure as drawn. Numbered stars: 1 amine (or outer) side, 2 acyl side, 3 side chain; on linkers, the order of the positions; unused ones are H or OH. Bridge positions count the residues as written; N and C are the ends. Square brackets hold non-standard residues; d marks the D form. Peptide text beside a SMILES is read from it. * marks the point of attachment. β2hAla(R) = C[C@H](CN[*:1])C(=O)[*:2]; Decanoyl = CCCCCCCCCC(=O)*; Dap = NC[C@H](N)C(=O)O; Sar = CNCC(=O)O

Tests used:
B. subtilis 168 = type: cell-based; details: 168, 24 h
Description: MICs were measured in triplicate by microbroth dilution. An overnight culture of B. subtilis 168 (DSMZ German Collection of Microorganisms and Cell Cultures GmbH) was inoculated at 5 × 10^5 CFU/mL in cation-adjusted Mueller–Hinton broth (MHB II) with or without 15 mM or 100 mM CaCl2. Serial two-fold peptide dilutions (128 - 1 µg/mL for analogues and 16 - 0.25 µg/mL for daptomycin) were incubated in polypropylene U-bottom 96-well plates (200 µL final volume) at 37 °C for 24 h. MIC was the lowest concentration at which no growth was observed. Optical density measurements at 620 nm were performed using a Thermo Scientific Multiskan FC (Thermo Fisher Scientific Inc., Paisley, UK). MIC was determined from the lowest concentration at which no tubidity was observed, using an untreated positive growth control, and a broth-only sterility control as references.

[1] = TLC precursor-binding assay with lipid II; design: key to Lipid II (TLC binding): “+” indicates binding confirmed; “-” indicates no binding; “~” indicates potential binding with absence of precursor band; details: for Lipid II (TLC binding): peptide 0.5, 1, 2 equiv. (nisin 0.1, 0.5, 1 equiv.) with lipid II in Tris·HCl pH 7.5, 50 mM CaCl2, 1 h, silica TLC
Description: (§1) Lipid II and undecaprenyl phosphate (C55-P) (1 equiv., 30 µL) in Tris•HCl buffer (0.2% Triton X-100, 26 mM MgCl2, and 50 mM CaCl2 at pH 7.5) were incubated with the peptides (0.5, 1, 2 equiv.) or nisin (0.1, 0.5, 1 equiv.) in 30 µL water for 1 h. The reaction was then extracted with ^tBuOH/6 M PyOAc (2/1 v/v, 100 µL) and the organic phase was dried using an Eppendorf vacuum centrifuge 5301 (Fisher Scientific, Loughborough, UK) under reduced pressure. The solid was redissolved in CHCl3/MeOH (1/1 v/v, 30–60 µL) for spotting onto the TLC plates. In addition to the peptide–lipid mixtures, a control of each peptide/nisin with 30 µL buffer, and a control of each lipid with 30 µL HPLC-grade water were also incubated and subjected to the same workup. Silica TLC plates were run in a CHCl3/MeOH/H2O/NH3 (88/48/10/1 v/v) solvent system and stained using iodine vapour, phosphomolybdic acid (PMA), or KMnO4 stain, as well as visualisation at 254 nm and 365 nm.

[2] = TLC precursor-binding assay with C55-P; design: key to C55-P (TLC binding): “+” indicates binding confirmed; “-” indicates no binding; “~” indicates potential binding with absence of precursor band; details: for C55-P (TLC binding): peptide 0.5, 1, 2 equiv. with C55-P in Tris·HCl pH 7.5, 50 mM CaCl2, 1 h, silica TLC
Description: as §1

SMILES	MIC + Ca^2+ (B. subtilis 168) [mg/L]	MIC − Ca^2+ (B. subtilis 168) [mg/L]	Lipid II (TLC binding) [1]	C55-P (TLC binding) [2]	C55-P spot on TLC after incubation with peptide (in words) ([2]; absence of C55-P spot = potential indicator of binding, KMnO4 staining in Figure S5)	binding to lipid II in TLC assay (in words) ([1]; lipid II spot on TLC after incubation, PMA staining in Figure S6)
CCCCCCCCCC(=O)NC[C@@H](C)C(=O)NCC(=O)N[C@H](CCC(=O)O)C(=O)N[C@@H](Cc1ccc(O)cc1)C(=O)N[C@@H]1C(=O)N[C@H]([C@H](C)CC)C(=O)N[C@@H](CC(=O)O)C(=O)N[C@@H](CC(=O)O)C(=O)N2CCC[C@H]2C(=O)NCC(=O)N[C@@H](CCC(=O)O)C(=O)N[C@@H](CC(=O)O)C(=O)N(C)CC(=O)O[C@@H]1C [Peptide C8] (Decanoyl-[β2hAla(R)]G[dE]YT[dI]DDPGED[Sar]; ester 5-C)	128	128 (≈ 85.2 µM)	-	-		
CCCCCCCCCC(=O)NC[C@@H](C)C(=O)NCC(=O)N[C@H](CCC(=O)O)C(=O)N[C@@H](Cc1ccc(O)cc1)C(=O)N[C@@H]1C(=O)N[C@H]([C@H](C)CC)C(=O)N[C@@H](CC(=O)O)C(=O)N[C@@H](CC(=O)O)C(=O)N2CCC[C@H]2C(=O)NCC(=O)N[C@H](CCC(=O)O)C(=O)NCC(=O)N[C@@H](CCC(=O)O)C(=O)N(C)CC(=O)O[C@@H]1C [Peptide C9] (Decanoyl-[β2hAla(R)]G[dE]YT[dI]DDPG[dE]GE[Sar]; ester 5-C)	128	128 (≈ 81.3 µM)	-	-	a lack of binding	
CCCCCCCCCC(=O)N[C@@H](CC(=O)O)C(=O)N[C@H]1CNC(=O)[C@@H]2CCCN2C(=O)[C@H](C(C)C)NC(=O)[C@@H](CC(=O)O)NC(=O)CNC(=O)[C@H](CC(=O)O)NC(=O)[C@H](CC(=O)O)NC(=O)[C@H](CCCCN)NC(=O)[C@@H](C(C)C)NC1=O [Peptide M1] (Decanoyl-D[Dap][dV]KDDG[dD]VP; lactam 2-C)	128	128 (≈ 108 µM)	-	-		

Next, values leading:

MIC + Ca^2+ (B. subtilis 168) [mg/L]	MIC − Ca^2+ (B. subtilis 168) [mg/L]	Lipid II (TLC binding) [1]	C55-P (TLC binding) [2]	C55-P spot on TLC after incubation with peptide (in words) ([2]; absence of C55-P spot = potential indicator of binding, KMnO4 staining in Figure S5)	binding to lipid II in TLC assay (in words) ([1]; lipid II spot on TLC after incubation, PMA staining in Figure S6)	SMILES
128	128 (≈ 103 µM)	-	-			CCCCCCCCCC(=O)N[C@@H](CC(=O)O)C(=O)N[C@H]1CNC(=O)[C@@H]2CCCN2C(=O)[C@H](C(C)C)NC(=O)[C@@H](CC(=O)O)NC(=O)CNC(=O)[C@H](CC(=O)O)NC(=O)CNC(=O)[C@H](CC(=O)O)NC(=O)[C@H](CCCCN)NC(=O)[C@@H](C(C)C)NC1=O [Peptide M2] (Decanoyl-D[Dap][dV]KDGDG[dD]VP; lactam 2-C)
128	128 (≈ 103 µM)	-	-		lack of binding	CCCCCCCCCC(=O)N[C@@H](CC(=O)O)C(=O)N[C@H]1CNC(=O)[C@@H]2CCCN2C(=O)[C@H](C(C)C)NC(=O)[C@H](CC(=O)O)NC(=O)CNC(=O)[C@H](CC(=O)O)NC(=O)CNC(=O)[C@H](CC(=O)O)NC(=O)[C@H](CCCCN)NC(=O)[C@@H](C(C)C)NC1=O [Peptide M3] (Decanoyl-D[Dap][dV]KDGDGDVP; lactam 2-C)
128	128 (≈ 103 µM)	-	-			CCCCCCCCCC(=O)N[C@@H](CC(=O)O)C(=O)N[C@H]1CNC(=O)[C@@H]2CCCN2C(=O)[C@H](C(C)C)NC(=O)CNC(=O)[C@@H](CC(=O)O)NC(=O)CNC(=O)[C@H](CC(=O)O)NC(=O)[C@H](CC(=O)O)NC(=O)[C@H](CCCCN)NC(=O)[C@@H](C(C)C)NC1=O [Peptide M4] (Decanoyl-D[Dap][dV]KDDG[dD]GVP; lactam 2-C)
128	128 (≈ 103 µM)	-	-			CCCCCCCCCC(=O)N[C@@H](CC(=O)O)C(=O)N[C@H]1CNC(=O)[C@@H]2CCCN2C(=O)[C@H](C(C)C)NC(=O)CNC(=O)[C@H](CC(=O)O)NC(=O)CNC(=O)[C@H](CC(=O)O)NC(=O)[C@H](CC(=O)O)NC(=O)[C@H](CCCCN)NC(=O)[C@@H](C(C)C)NC1=O [Peptide M5] (Decanoyl-D[Dap][dV]KDDGDGVP; lactam 2-C)
